{
  "source": "paper PMC8323883",
  "about": "“PlzA is a bifunctional c-di-GMP biosensor that promotes tick and mammalian host-adaptation of Borrelia burgdorferi” (PLoS Pathogens, 2021)",
  "molecular_target": "T1, PlzA (BB0733) (Borreliella burgdorferi, UniProt O51675)",
  "T1 construct": "gene BB_0733; PilZN3-PilZ domains",
  "T1 sequence (O51675 entry or part of it)": "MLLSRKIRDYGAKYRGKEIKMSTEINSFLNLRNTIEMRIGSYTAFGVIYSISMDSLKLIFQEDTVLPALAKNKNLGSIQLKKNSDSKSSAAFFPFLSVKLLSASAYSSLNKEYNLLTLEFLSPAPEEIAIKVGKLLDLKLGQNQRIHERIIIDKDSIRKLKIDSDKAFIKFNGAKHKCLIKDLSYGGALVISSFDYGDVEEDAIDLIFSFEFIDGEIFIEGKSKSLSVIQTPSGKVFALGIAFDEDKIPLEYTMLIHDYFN",
  "experiment": "SAXS with and without ligand (Kratky plots)",
  "format": "binding",
  "settings": "33-135 µM PlzA, 270 µM c-di-GMP; 500 mM NaCl, 20 mM Na2HPO4, pH 7.4; ligand-induced conformational change",
  "data": [
    {"molecule": "Nc1nc2c(ncn2[C@@H]2O[C@@H]3COP(=O)(O)O[C@H]4[C@@H](O)[C@H](n5cnc6c(=O)[nH]c(N)nc65)O[C@@H]4COP(=O)(O)O[C@H]3[C@H]2O)c(=O)[nH]1", "note": "[c-di-GMP, bis-(3′-5′)-cyclic dimeric guanosine monophosphate]", "values": [
      {"measurement": "SAXS with and without ligand (Kratky plots)", "result": "confirming a major structural rearrangement upon binding of c-di-GMP"}
    ]}
  ]
}
